Values of other authors, collected in US20160158245A1, “PHARMACEUTICAL FORMULATION CONTAINING THIENOTRIAZOLODIAZEPINE COMPOUNDS” (ONCOETHIX GmbH, priority 2013, published 2016).

System: BRD4 and c-MYC
Settings: cited from earlier work

Compound: Cc1sc2c(c1C)C(c1ccc(Cl)cc1)=N[C@@H](CC(=O)OC(C)(C)C)c1nnc(C)n1-2 [JQ1]
- BRD4 and c-MYC down-regulation: induce BRD4 down-regulation and subsequently c-MYC down-regulation
